Values quoted from earlier work in patent US20130210861A1, “METHODS AND COMPOSITIONS FOR MANAGING CARDIOVASCULAR DISEASE ASSOCIATED WITH CHRONIC KIDNEY DISEASE” (priority 2011, published 2013).
Like-named read-outs stand apart in the source and are kept apart here.

Key:
[1] = system: APO E -/- mice
[2] = HCQ use
[3] = multiple rheumatological cohorts with CVD
[4] = patients with inflammatory disorders
[5] = system: matrix metallo proteinase-9 (MMP-9); details: SLE patients
[6] = Latin American cohort
[7] = not given; remark: listed apart in the source
[8] = Lumina cohort, southern US

SMILES	atheroprotection [1]	OR for metabolic syndrome [2]	OR for vascular events [2]	cardiovascular deaths in patients using HCQ (232 patients, 52-month study period, 7 deaths in those never exposed to HCQ)	HR for death from any cause (Spanish trial cohort, HCQ use)	OR for death [3]	fasting glucose [4]	MMP-9 secretion [5]	OR for death [6]	absorption ([7]; 200 mg tablet)	elimination half-life ([7]; 200 mg tablet (155 mg of base))	plasma protein binding ([7]; in vivo)	OR for death [8]
CCN(CC)CCCC(C)Nc1ccnc2cc(Cl)ccc12 (centres unmarked) [Chloroquine]	significant atheroprotection activity	–	–	–	–	–	–	–	–	–	–	–	–
CCN(CCO)CCCC(C)Nc1ccnc2cc(Cl)ccc12 (centres unmarked) [HCQ, hydroxychloroquine]	significant atheroprotection	0.13	0.3	zero	0.14	0.12-0.49	lowered	inhibited	0.62	absorbed rapidly and completely	32 to 50 days	moderate	0.31
